# Read-outs that look alike come from different tables or passages of the source.
# How the values were obtained:
# Mouse Plasma Conc. = type: in vivo; conditions: given as 'Up to'
# PK Studies in the Rat = type: in vivo; conditions: for Cmax / Tmax / half-life / AUC(0-t): plasma; for AUC(0-t): read-out: AUC0-24 h (converted)
# Protocol: Assay 5. Pharmacokinetic Profile
# The pharmacokinetic profile of test compounds is determined by the following assay: • Intravenous infusion of test compound; 2 mg/Kg in a suitable vehicle is […]; […] up to 24 hours. • Plasma concentrations of test compound are determined by suitable analytical method.
# [formula] [formula] [formula] • CLtotal=total plasma clearance after IV administration • Vdβ=volume of distribution during the elimination phase after IV administration • BA=oral bioavailability • AUCIV=area under the plasma concentration versus time profile from time zero to infinity after IV administration • AUCoral=area under the plasma concentration versus time profile from time zero to infinity after oral administration • β=terminal elimination rate constant after IV administration Assay 6. Blood Brain Barrier Penetration
# [1] = Metabolism in hepatocytes (predicted EH), rat; type: in vitro ADME
# CYP2C19 = molecular target: T1, CYP2C19 (Homo sapiens, UniProt P33261); experiment: CYP450 inhibition, specific substrate approach in human liver microsomes: CYP2C19; type: in vitro ADME
# T1 construct: using a specific substrate approach in human liver microsomes; from tissue; host or cells: human liver microsomes
# T1 sequence (P33261 whole entry): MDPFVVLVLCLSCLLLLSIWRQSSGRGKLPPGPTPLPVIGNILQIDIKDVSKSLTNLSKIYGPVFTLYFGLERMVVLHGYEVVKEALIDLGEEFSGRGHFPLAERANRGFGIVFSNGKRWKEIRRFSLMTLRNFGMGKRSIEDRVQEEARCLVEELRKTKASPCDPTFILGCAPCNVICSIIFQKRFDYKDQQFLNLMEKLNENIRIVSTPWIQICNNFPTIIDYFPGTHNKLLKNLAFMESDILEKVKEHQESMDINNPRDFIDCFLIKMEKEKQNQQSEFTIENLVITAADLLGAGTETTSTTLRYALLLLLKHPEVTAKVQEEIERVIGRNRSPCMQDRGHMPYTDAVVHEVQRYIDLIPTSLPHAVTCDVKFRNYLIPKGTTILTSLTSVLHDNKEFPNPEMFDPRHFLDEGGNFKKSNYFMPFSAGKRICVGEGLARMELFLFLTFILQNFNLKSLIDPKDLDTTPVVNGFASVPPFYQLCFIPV
# Protocol: (§1) CYP450 Isoform Inhibition Using a Specific Substrate Approach
# (§2) The present study is a “Tier 2” screen to assess potential enzyme inhibition at a test compound concentration of 20 μM using a specific substrate approach in human liver microsomes.
# (§3) The substrate specific enzyme inhibition study relies on the formation of a metabolite that is mediated by a specific CYP450 isoform using human liver microsomes. In the current study, the following reactions were monitored to assess interactions with specific CYP450 isoforms. A known inhibitor of each isoform was included in each assay as a positive control. The following IC50 values have been reported in the literature using equivalent assay conditions for each CYP450 isoform:
# (§4) The reaction was initiated by the addition of an NADPH-regenerating system and was quenched by the addition of acetonitrile prior to determining the concentration (and apparent rate of formation) of the specific metabolite by LC/MS.
# (§5) The IC50 was deemed to be the concentration at which there was a 50% reduction in the amount of metabolite formed, relative to the maximal extent of formation.
# CYP2D6 = molecular target: T2, CYP2D6 (Homo sapiens, UniProt P10635); experiment: CYP450 inhibition, specific substrate approach in human liver microsomes: CYP2D6; type: in vitro ADME
# T2 construct: using a specific substrate approach in human liver microsomes; from tissue; host or cells: human liver microsomes
# T2 sequence (P10635 whole entry): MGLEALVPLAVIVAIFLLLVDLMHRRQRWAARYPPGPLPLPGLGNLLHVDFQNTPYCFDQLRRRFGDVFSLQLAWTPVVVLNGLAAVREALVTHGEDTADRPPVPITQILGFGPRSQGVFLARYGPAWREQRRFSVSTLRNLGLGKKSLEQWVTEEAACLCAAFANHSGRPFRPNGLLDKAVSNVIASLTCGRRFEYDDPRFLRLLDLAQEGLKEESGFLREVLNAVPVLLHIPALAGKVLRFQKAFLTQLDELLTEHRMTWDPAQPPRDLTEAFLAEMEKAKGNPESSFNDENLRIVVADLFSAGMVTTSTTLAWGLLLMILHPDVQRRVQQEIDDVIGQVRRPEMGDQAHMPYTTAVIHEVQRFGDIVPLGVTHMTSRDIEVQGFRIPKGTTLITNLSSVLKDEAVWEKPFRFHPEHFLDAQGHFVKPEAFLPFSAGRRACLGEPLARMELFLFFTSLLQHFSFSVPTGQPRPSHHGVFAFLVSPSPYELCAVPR
# Protocol: as §1, §2, §3, §4, §5
# [2] = Equilibrium Solubility (pH 2-7); type: physicochemical; conditions: for solubility thermodynamic: aqueous buffer, thermodynamic from solid
# [3] = test system: 6-OHDA lesion of the SNpc; experiment: Parkinson's disease in vivo: 6-OHDA model; parameters: species or system mouse; conditions: 6-OHDA lesioned mice, dose not given; for Behaviour (Rotation) % SSV: SSV = 0%
# Protocol: Parkinson's Disease In Vivo Technique: 6-OHDA Model
# Preparation of the toxin 6-OHDA (1.65 mg/mL, Sigma Cat# H-4381):
# 6-OHDA toxin is dissolved in ascorbic acid solution (0.2 mg/mL in dH2O), store in dark on ice. To increase the speed of anaesthesia and reduce stress to the mouse, there is premedication with atropine (0.5 mg/kg) and xylazine (10 mg/kg) is injected subcutaneously via a 27 gauge needle).
# To Prepare the Lesion Needle to Inject 6-OHDA:
# PBS is sucked up into the line (ensure no air bubbles) with up to […] in a Hamilton syringe. Syringe is placed the in the Kd Scientific syringe pump and secured. Pump is turned the on and syringe is loaded into the pump. Pump volume is set at […] and the rate is set at 0.5 ml/min. The lesion needle is positioned so that the bevelled (eye) of the needle is at a 45° angle from the midline and tightened to secure the needle. Pump is run and checked for fluid coming out.
# 3-4% isoflurane is carried by oxygen to induce anaesthesia and 1-2% for maintenance of anaesthesia. Animal is placed in small induction chamber and subjected to a few minutes of 4% isoflurane in oxygen at a flow rate of approx 1 l/min. Mouse is then placed in stereotaxic frame. The anaesthetic tube is disconnected from induction box and isoflurane reduced to 2% conc and oxygen flow rate to approx […]. Tube is connected to the nose piece attached to stereotaxic frame so that anaesthetic gas can be constantly administered during surgery. LHS ear bar is screwed at approx 3 mm. RHS ear bar is screwed in until there is no sideways head movement (about 5 mm). Front incisors are placed over the mouthguard and put nose-guard on (3 mm below 0). Mouthguard is screwed into place and ensured the top of the mouse's head is level (re-check this once the animal's skull is exposed).
# Using a scalpel (size 4, blade 22), the scalp is cut down the centreline of the mouse's head to expose the skull. Typically 10-15 mm. The surface of the skull is dried with a cotton bud. Drill hole is measured with a ruler 3 mm posterior from Bregma and between 1 and 1.5 mm laterally from the centre line. The skull is drilled into this position until the surface of the brain is exposed.
# 6-OHDA is sucked up to fill approximately 15 cm of the line and the syringe. Fluid is ensured to be coming out of needle. The bevelled of the needle is aligned over the centreline where Bregma crosses, viewed by Motik dissecting microscope. The needle is ensured to be a few mm above the skull before positioning. Frame is moved 2.9 mm in a posterior direction and 1.1 mm (11 small notches) laterally to the right (for RHS injections) from the starting coordinates at Bregma. Needle is moved down until the tip of the needle just touches the surface of the brain.
# Needle is lowered to the required depth of 4.6 mm and brain is allowed to settle for 2 min.
# […] of toxin is injected into the RHS SNpc, taking 4 min. 2 min is allowed to ensure the toxin disperses. Needle is withdrawn and antiseptic applied to the wound, with suture or superglue to close.
# Mouse is wrapped in a piece of tissue and placed in a warm recovery box (on a heat pad) with water bottles (50 ml tubes) warmed to 50 C. Panadol® syrup is added to mouse's water bottle.
# Rotation is recorded by the Computer based Rotacount system—(Columbus Instruments, Columbus, Ohio, USA). The system comprised of 8 bowls with sensors connected to a computer which measures incremental turns (90 degrees and full turns 360 degrees) either clockwise or counter clockwise. The sensors are positioned above the centre of each bowl about 30 cm above each. Tubing and a thin empty plastic pipette are attached so that the sensor is now extended to with a few cm of the base of the bowl.
# Mice are placed individually into the eight bowls. Mice are secured to the pipettes via a cable tie and tape. […]
# CYP3A4 = CYP3A4 (Homo sapiens, UniProt P08684); experiment: CYP450 inhibition, specific substrate approach in human liver microsomes: CYP3A4; type: in vitro ADME; parameters: using a specific substrate approach in human liver microsomes; from tissue; host or cells: human liver microsomes
# CYP3A4, sequence (P08684 2-503): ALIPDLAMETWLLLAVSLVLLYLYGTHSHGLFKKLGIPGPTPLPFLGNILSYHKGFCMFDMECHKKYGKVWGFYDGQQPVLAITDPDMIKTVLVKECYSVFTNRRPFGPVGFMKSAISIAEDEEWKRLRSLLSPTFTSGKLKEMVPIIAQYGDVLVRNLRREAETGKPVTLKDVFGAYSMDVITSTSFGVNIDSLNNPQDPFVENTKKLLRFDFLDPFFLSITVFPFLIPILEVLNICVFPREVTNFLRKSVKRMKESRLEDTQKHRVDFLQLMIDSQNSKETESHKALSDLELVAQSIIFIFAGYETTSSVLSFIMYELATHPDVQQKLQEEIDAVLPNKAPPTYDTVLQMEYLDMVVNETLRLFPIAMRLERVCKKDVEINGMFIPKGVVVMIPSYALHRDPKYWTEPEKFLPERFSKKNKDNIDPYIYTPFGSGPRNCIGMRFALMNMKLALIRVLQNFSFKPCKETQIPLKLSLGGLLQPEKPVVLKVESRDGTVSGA
# Protocol: as §1, §2, §3, §4, §5
# [4] = midazolam, read-out: CYP3A4-Midazolam IC50
# [5] = testosterone, read-out: CYP3A4-Testosterone IC50
SMILES,Mouse Plasma Conc. (Mouse Plasma Conc.) [ng/mL],% dose in urine (PK Studies in the Rat; oral 20 mg/Kg) [% dose],l24 (PK Studies in the Rat; oral 20 mg/Kg),Cmax (PK Studies in the Rat; oral 20 mg/Kg) [µM],Tmax (PK Studies in the Rat; oral 20 mg/Kg) [h],half-life (PK Studies in the Rat; oral 20 mg/Kg) [h],AUC(0-t) (PK Studies in the Rat; oral 20 mg/Kg) [µM·h],"Metabolism (Predicted EH), Hepatocytes: Rat [1]",IC50 (CYP2C19) [µM],IC50 (CYP2D6) [µM],pH dependence of equilibrium solubility [2],solubility thermodynamic [2] [µg/mL],IC50 (CYP3A4; [4]) [µM],IC50 (CYP3A4; [5]) [µM],Behaviour (Rotation) % SSV [3] [%],Behaviour (Rotation) total turns/h ± SD [3],SN cell counts % of SSV (SSV = 0%) [3] [%],SN cell counts (cells ± SD) [3],further results
"CN(C)Cc1nc2c(O)c(Cl)cc(Cl)c2c(=O)n1C [Compound F4269, 5,7-Dichloro-2-(dimethylamino)methyl-8-hydroxy-3-methylquinazolin-4(3H)-one]",≤ 492.1,0.1,l24 = 0.01-0.03 uM,3.3,0.375,5.6,5.5,Rat = 0.35,> 30,> 30,pH dependent,166 to 2670,> 30,> 30,48.85,(132.50 ± 81.93) turns/h,68.91,(3243.93 ± 724.98) cells,
Br.CCn1c(CNC)nc2c(O)c(Cl)cc(Cl)c2c1=O [Compound F4486],≤ 1115,,,,,,,,,,,,,,,,,,
Br.CCNCc1nc2c(O)c(Cl)cc(Cl)c2c(=O)n1C [Compound F4496],≤ 3330.8,0.19,l24= 0.02-0.1 uM,7.61,0.75,6.1,17.8,Rat = 0.35,> 30,> 30,not pH dependent,224 to 1500,4.4,8.6,36.62,(164.20 ± 100.40) turns/h,95.68,(3758.11 ± 510.98) cells,

# Further lines, with some results ahead:
Mouse Plasma Conc. (Mouse Plasma Conc.) [ng/mL],% dose in urine (PK Studies in the Rat; oral 20 mg/Kg) [% dose],l24 (PK Studies in the Rat; oral 20 mg/Kg),Cmax (PK Studies in the Rat; oral 20 mg/Kg) [µM],Tmax (PK Studies in the Rat; oral 20 mg/Kg) [h],half-life (PK Studies in the Rat; oral 20 mg/Kg) [h],AUC(0-t) (PK Studies in the Rat; oral 20 mg/Kg) [µM·h],"Metabolism (Predicted EH), Hepatocytes: Rat [1]",IC50 (CYP2C19) [µM],IC50 (CYP2D6) [µM],pH dependence of equilibrium solubility [2],solubility thermodynamic [2] [µg/mL],IC50 (CYP3A4; [4]) [µM],IC50 (CYP3A4; [5]) [µM],SMILES,Behaviour (Rotation) % SSV [3] [%],Behaviour (Rotation) total turns/h ± SD [3],SN cell counts % of SSV (SSV = 0%) [3] [%],SN cell counts (cells ± SD) [3],further results
≤ 510.4,,,,,,,Rat = 0.29,,,pH dependent,196 to 746,,,CNCc1nc2c(O)c(Cl)cc(Cl)c2c(=O)n1C [Compound F4161],,,,,"Cmax (PK Studies in the Rat; route and dose not given): 6.7 µM; Tmax (PK Studies in the Rat; route and dose not given): 0.25 h; half-life (PK Studies in the Rat; route and dose not given): 6.7 h; AUC(0-t) (PK Studies in the Rat; route and dose not given): 14.1 µM·h; % dose in urine (PK Studies in the Rat; route and dose not given): urine = 0.1%; l24 (PK Studies in the Rat; route and dose not given): l24 = 0.045-0.15 μM; IC50 (CYP2D6; human, liver microsomes, probe dextromethorphan 3 μM): 40 µM"
≤ 8935,0.18,l24 = 0.05-0.3 uM,56.7,0.5,4.1,87,Rat = 0.35,> 30,9.5,not pH dependent,2230 to 4730,> 30,> 30,CCNCc1nc2c(O)c(Cl)cc(Cl)c2c(=O)n1CC [Compound F4495],18.06,(212.29 ± 101.41) turns/h,57.22,(3019.56 ± 318.79) cells,
≤ 975.9,,,,,,,Rat = 0.30,> 20,> 20,not pH dependent,3810 to 10200,~20,> 20,CCn1c(CN(C)C)nc2c(O)c(Cl)cc(Cl)c2c1=O.Cl [Compound F4268],56.04,(114.56 ± 71.86) turns/h,93.96,(3725.04 ± 842.65) cells,% dose in urine (PK Studies in the Rat; oral 30 mg/Kg): 0.1% dose; Rel. Exposure (PK Studies in the Rat; oral 30 mg/Kg): 51.9%; l24 (PK Studies in the Rat; oral 30 mg/Kg): l24 = 0.02-0.05 uM; Cmax (PK Studies in the Rat; oral 30 mg/Kg): 10 µM; Tmax (PK Studies in the Rat; oral 30 mg/Kg): 0.333 h; half-life (PK Studies in the Rat; oral 30 mg/Kg): 4.3 h
≤ 942.7,,,,,,,,,,,,,,C#CCN(C)Cc1nc2c(O)c(Cl)cc(Cl)c2c(=O)n1CC1CC1 [Compound F4387],24.51,(195.57 ± 114.48) turns/h,46.90,(2821.24 ± 940.22) cells,

# — patent publication US9145375B2, “Quinazolinone compounds” (PRANA BIOTECHNOLOGY LIMITED, priority 2008, dated 2015)
